Source: BigSolDB 2.1

C=C(C)[C@@H]1CC[C@]2(C(=O)O)CC[C@]3(C)[C@H](CC[C@@H]4[C@@]5(C)CCC(=O)C(C)(C)[C@@H]5CC[C@]43C)[C@@H]12
solubility (mole fraction)
Conditions	278.15 K	283.15 K	288.15 K	293.15 K	298.15 K	303.15 K	308.15 K	313.15 K	318.15 K
in 2-methoxyethanol	0.00863	0.00923	0.00969	0.0103	0.0108	0.0117	0.0127	0.0137	0.0149
in 2-propoxyethanol	0.0239	0.0248	0.025	0.0264	0.0274	0.0288	0.03	0.0314	0.0331
in ethanol	0.00376	0.00399	0.00454	0.00503	0.00566	0.00617	0.00693	0.00757	0.00848
in isopropanol	0.00531	0.00564	0.00651	0.0075	0.00865	0.00968	0.0114	0.0138	0.0158
in methanol	0.00129	0.00136	0.00146	0.00157	0.00171	0.00192	0.00211	0.00234	0.0027
in n-propanol	0.00728	0.00762	0.00827	0.00914	0.0104	0.0116	0.0131	0.0144	0.0163
